# Test results published in US5079261A, “Use of lipoxin A4 and its derivatives as antagonists for slow-reacting substances of anaphylaxis” (Brigham and Women's Hospital, priority 1989, dated 1992).
# Tests used:
# renal arterioles = conditions: renal artery, anesthetized rats; cited from earlier work
# [1] = Renal function in vivo in anesthetized rats (AP, Hct, RPF, GFR) during intrarenal arterial infusion; set-up: species or system male Munich-Wistar rats; conditions: for AP / GFR / Hct / RPF: LXA4 20-min infusion, n=3
# Description: Statistical: ANOVA with Bonferroni modification for multiple pre-planned comparisons was used, within each group and between groups, to compare the changes in various whole kidney and microcirculatory indices which occurred from one period to another. In phosphoinositide generation studies, increases in [^3 H]-IP3 CPMs in agonist-treated cells were compared to vehicle-treated controls using upaired students t-test. Differences were considered significant at a p value ≤0.05. All values are reported as means ± SEM.
# Inulin and para-aminohippurate (PAH) clearances Were used to measure GFR and effective RPF. A needle was placed at the take-off of the left renal artery through which a maintenance infusion of 0.9% NaCl at a rate of 0.05 ml/min was initiated. […] Two experimental groups
# Group I (n=14). First period: Clearances were performed during vehicle infusion.
# Group II (n=12). First period: Clearances were performed during vehicle infusion.
# [2] = target: T1, mesangial cell LTD4 receptor (Rattus norvegicus, UniProt Q924T8); conditions: 10 nM [3H]-LTD4
# T1 sequence (Q924T8 1-339): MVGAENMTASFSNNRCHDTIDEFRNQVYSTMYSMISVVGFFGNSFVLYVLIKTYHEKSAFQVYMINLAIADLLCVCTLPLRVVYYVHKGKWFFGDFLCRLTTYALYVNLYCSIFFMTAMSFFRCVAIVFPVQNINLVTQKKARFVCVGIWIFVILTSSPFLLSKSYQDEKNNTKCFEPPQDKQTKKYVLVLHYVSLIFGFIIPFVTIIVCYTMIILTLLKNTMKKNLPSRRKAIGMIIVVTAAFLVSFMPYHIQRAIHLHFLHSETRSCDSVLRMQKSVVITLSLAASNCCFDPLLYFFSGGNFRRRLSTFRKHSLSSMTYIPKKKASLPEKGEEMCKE
# Description: Mesangial Cell Culture: Rat mesangial cells were isolated and cultured as described previously (Harris, R. C., et al., J. Clin. Invest. 82:1028-1039(1988). Briefly, kidneys were exicesed from two young Sprague-Dawly rats under sterile conditions, and the cortices removed, minced, and washed several times in Hank's Balanced Salt Solution, containing 10 mM HEPES pH 7.4, amphotericin (0.25 μg/ml), and gentamicin (50 μg/ml). The tissue was then passed through consecutive sterilized stainless mesh filters with pore sizes of 212 μm, 150 μm, and then onto the final mesh of 75 μm. The isolated glomeruli were harvested from the surface of the 75 μm. The isolated glomeruli were harvested from the surface of the 75 μm filter and washed twisce with the Hank's Media. The glomeruli were suspended in RPMI 1640 Medium with 15% Fetal Bovine Serum (Givco), penicillin (100 μ/ml) and streptomycin (100 μg/ml) (Gibco), plated into 100 mm cell culture petri dishes, and incubated at 37° C. in a humidified atmosphere of 95% air and 5% air and 5% CO2. Mesangial cell colonies were subcultured in 60 mm culture dishes, and experiments were carried out in cells from passages 2 to 12. […] Cells were routinely grown in RPMI-1640, supplemented with 20% fetal calf serum, penicillin 100 μ/ml, and streptomycin 100 μg/ml.
# Binding studies were routinely performed at 4° C. […] The cells were then dissolved with 1.0 ml of 1.0 N NaOH, neutralized with HCl, dissolved in 10 ml of Aquasol (New England Nuclear, Boston, MA), and the bound radioactivity was determined using a scintillation counter (Beckman Instruments). […] Cell density was determined by counting cells from replicate wells, using a Coulter Counter ZBi (Coulter Electronics, Inc., Hialeah, Fla.).
# hamster cheek pouch = conditions: topical; cited from earlier work
# [3] = Group II, third period, LTD4 in the presence of LXA4
# [4] = LTD4 14.0 μg/kg/min + LXA4, p<0.05 vs baseline
# [5] = LTD4 20.0 μg/kg/min + LXA4, p<0.05 vs baseline
compound,measurement,setting,value
"CCCCC[C@H](O)/C=C/C=C\C=C\C=C\[C@@H](O)[C@@H](O)CCCC(=O)O [LXA4, (5S,6R,15S)-5,6,15-trihydroxy-7,9,13-trans-11-cis-eicosatetraenoic acid]",Glomerular capillary ultrafiltration coefficient (Kf),renal arterioles,reduces
same,Renal arteriole response,renal arterioles,elicits vasodilator responses
same,GFR and RPF change (in words),"[1]; Group II, LXA4 infusion, period 2",moderate increases
same,AP,"[1]; Group II, period 2, subgroup A",121 ± 4 mmHg
same,GFR,"[1]; Group II, period 2, subgroup A",1.20 ± 0.20 mL/min
same,Hct,"[1]; Group II, period 2, subgroup A",43.7 ± 0.9 Vol./dl
same,RPF,"[1]; Group II, period 2, subgroup A",4.50 ± 0.08 mL/min
same,AP,"[1]; Group II, period 2, subgroup B",120 ± 0 mmHg
same,GFR,"[1]; Group II, period 2, subgroup B",0.98 ± 0.06 mL/min
same,Hct,"[1]; Group II, period 2, subgroup B",44.7 ± 1.2 Vol./dl
same,RPF,"[1]; Group II, period 2, subgroup B",4.76 ± 0.83 mL/min
same,AP,"[1]; Group II, period 2, subgroup C",127 ± 2 mmHg
same,GFR,"[1]; Group II, period 2, subgroup C",1.30 ± 0.10 mL/min
same,Hct,"[1]; Group II, period 2, subgroup C",45.2 ± 0.7 Vol./dl
same,RPF,"[1]; Group II, period 2, subgroup C",4.87 ± 0.10 mL/min
same,AP,"[1]; Group II, period 2, subgroup D",108 ± 3 mmHg
same,GFR,"[1]; Group II, period 2, subgroup D",1.27 ± 0.04 mL/min
same,Hct,"[1]; Group II, period 2, subgroup D",44.5 ± 0.3 Vol./dl
same,RPF,"[1]; Group II, period 2, subgroup D",4.58 ± 0.20 mL/min
same,Effect on LTD4-induced falls in RPF,[1]; [3],without effect
same,Effect on LTD4-provoked reduction in GFR,[1]; [3],marked blunting
same,Mean percent fall in GFR during LTD4 in the presence of LXA4,[1]; LTD4 0.5 μg/kg/min + LXA4,9%
same,Mean percent fall in RPF during LTD4 in the presence of LXA4,"[1]; LTD4 0.5 μg/kg/min + LXA4, p<0.05 vs baseline",20%
same,Mean percent fall in GFR during LTD4 in the presence of LXA4,[1]; LTD4 7.0 μg/kg/min + LXA4,11%
same,Mean percent fall in RPF during LTD4 in the presence of LXA4,"[1]; LTD4 7.0 μg/kg/min + LXA4, p<0.05 vs baseline",37%
same,Mean percent fall in GFR during LTD4 in the presence of LXA4,[1]; [4],42%
same,Mean percent fall in RPF during LTD4 in the presence of LXA4,[1]; [4],51%
same,Mean percent fall in GFR during LTD4 in the presence of LXA4,[1]; [5],50%
same,Mean percent fall in RPF during LTD4 in the presence of LXA4,[1]; [5],68%
same,Competition for [3H]-LTD4 binding compared with LTB4,[2],"several-fold greater than that of the non-peptidoleukotriene, LTB4"
same,Competition for [3H]-LTD4 binding compared with LTE4,[2],equipotent to that of LTE4
same,Arteriolar dilation,hamster cheek pouch,pronounced arteriolar dilation
same,Venular diameters,hamster cheek pouch,does not change venular diameters
